We go through 27 molecules from US11390616B2 (BRISTOL-MYERS SQUIBB COMPANY, priority 2015, dated 2022).

In this experiment the target is T1, human APJ receptor (Homo sapiens, UniProt P35414).
T1 construct: expressed in transfected cells; host or cells: HEK293
T1 sequence (P35414 1-380): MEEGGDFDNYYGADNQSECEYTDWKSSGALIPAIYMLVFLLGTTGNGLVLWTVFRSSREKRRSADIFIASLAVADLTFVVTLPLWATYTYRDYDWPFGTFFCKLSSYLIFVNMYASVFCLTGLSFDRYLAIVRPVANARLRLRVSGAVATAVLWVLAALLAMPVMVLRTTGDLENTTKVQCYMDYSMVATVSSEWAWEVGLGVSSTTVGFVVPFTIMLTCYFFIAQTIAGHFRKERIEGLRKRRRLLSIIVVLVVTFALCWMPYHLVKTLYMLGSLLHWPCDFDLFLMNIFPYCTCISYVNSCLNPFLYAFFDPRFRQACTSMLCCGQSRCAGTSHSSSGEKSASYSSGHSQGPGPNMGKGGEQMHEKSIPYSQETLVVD
In words: Intracellular cAMP accumulation assay (APJ hcAMP, HTRF). The conditions noted are these: HEK293 cells stably expressing human APJ receptor, inhibition of forskolin-mediated cAMP production. Type of experiment: cell-based. The protocol: Intracellular cAMP Accumulation Assay
HEK293 cells stably expressing human APJ receptor were used to assess the activity of compounds. Cultured cells were detached and resuspended in the cAMP Homogeneous Time-Resolved Fluorescence (HTRF) assay buffer (Cisbio cat; #62AM4PEJ). The assay was performed in 384-well assay plates (Perkin-Elmer; cat #6008289) according to assay protocol provided by the manufacturer. Serial dilutions of a compound together with assay buffer containing […] IBMX and 2 μM forskolin were added to each well containing 5,000 cells and incubated for 30 minutes at room temperature. Subsequently, cAMP D2 reagent was added in the lysis buffer followed by the EuK antibody (Cisbio; cat #62AM4PEJ) and incubated for 60 min. The fluorescence emission ratio was measured using fluorometer. The intracellular cAMP concentrations (compound-stimulated inhibition of forskolin-mediated cAMP production) were calculated by extrapolation from a standard curve using known cAMP concentrations. The EC50 values were obtained by fitting the data to a sigmoidal concentration-response curve with variable slope. The maximal achievable inhibition of forskolin-induced cAMP levels (Ymax) for each compound was expressed as relative percentage of inhibition attained using pyroglutamated apelin-13 ((Pyr1)apelin-13) peptide, which was set to 100%.
The examples disclosed below were tested in the APJ in vitro assays described above and were found having human APJ cyclic AMP (hcAMP) activity. The EC50 value of each compound is presented at the end of the example description.
The biological activity of the exemplified compounds of this invention determined by the assay described above is shown at the end of each example.
In general terms: Cyclic AMP is a second messenger, typically raised through Gs and lowered through Gi signalling.

[1] abbreviates: read-out: Human APJ cAMP EC50 potency range.
[2] abbreviates: read-out: APJ cAMP Potency range.

Like-named read-outs stand apart in the source and are kept apart here.

Take `CCCCc1nc(=O)c(Cc2ccc(Br)cc2)c(O)n1[C@@H](CC)c1cccc(C#N)c1` [Compound 95i, (S)-3-(1-(5-(4-bromobenzyl)-2-butyl-6-hydroxy-4-oxopyrimidin-1(4H)-yl)propyl)benzonitrile]: under setting [1], the EC50 lay within 10 to 100 nM.

Take `CCOCc1nc(O)c(Cc2ccc(-n3ccccc3=O)cc2)c(=O)n1-c1c(OC)cccc1OC` [Example 1]: the EC50 under setting [1] lay within 100 to 300 nM.

For `CCCCc1nc(O)c(Cc2ccc(OC)cc2)c(=O)n1-c1c(OC)cccc1OC` [Example 2, 2-butyl-3-(2,6-dimethoxyphenyl)-6-hydroxy-5-[(4-methoxyphenyl)methyl]-3,4-dihydropyrimidin-4-one], the EC50 under setting [2] is 10 to 100 nM.

`CCCCc1nc(O)c(Cc2ccc(OC)cc2)c(=O)n1-c1ccccc1OC` [Example 3, 2-butyl-6-hydroxy-3-(2-methoxyphenyl)-5-[(4-methoxyphenyl)methyl]-3,4-dihydropyrimidin-4-one]: the EC50 under setting [2] lay within 100 to 300 nM.

As for `CCCCc1nc(O)c(Cc2ccc(-n3cccn3)cc2)c(=O)n1-c1c(OC)cccc1OC` [Example 5, 2-butyl-3-(2,6-dimethoxyphenyl)-6-hydroxy-5-{[4-(1H-pyrazol-1-yl)phenyl]methyl}-3,4-dihydropyrimidin-4-one], the EC50 under setting [2] lay in the range of 0.01 to 10 nM.

Regarding `CCCCc1nc(O)c(Cc2ccc(-c3ncon3)cc2F)c(=O)n1-c1c(OC)cccc1OC` [Example 6, 2-butyl-3-(2,6-dimethoxyphenyl)-5-{[2-fluoro-4-(1,2,4-oxadiazol-3-yl)phenyl]methyl}-6-hydroxy-3,4-dihydropyrimidin-4-one], the EC50 under setting [2] lay within 0.01 to 10 nM.

Consider `CCCCc1nc(O)c(Cc2ccc(S(C)(=O)=O)cc2)c(=O)n1-c1c(OC)cccc1OC` [Example 7, 2-butyl-3-(2,6-dimethoxyphenyl)-6-hydroxy-5-[(4-methanesulfonylphenyl)methyl]-3,4-dihydropyrimidin-4-one], for which, under setting [2], the EC50 is 10 to 100 nM.

Turning to `CCCCc1nc(O)c(Cc2cc(C)on2)c(=O)n1-c1c(OC)cccc1OC` [Example 8, 2-butyl-3-(2,6-dimethoxyphenyl)-6-hydroxy-5-[(5-methyl-1,2-oxazol-3-yl)methyl]-3,4-dihydropyrimidin-4-one], the EC50 under setting [2] lay within 10 to 100 nM.

Take `CCCCc1nc(O)c(Cc2ccc(NC(C)=O)cc2)c(=O)n1-c1c(OC)cccc1OC` [Example 9, N-(4-{[2-butyl-1-(2,6-dimethoxyphenyl)-4-hydroxy-6-oxo-1,6-dihydropyrimidin-5-yl]methyl}phenyl)acetamide]: the EC50 under setting [2] was 10 to 100 nM.

In the case of `CCCCc1nc(O)c(Cc2ccc(-c3nc(C)no3)cc2)c(=O)n1-c1c(OC)cccc1OC` [Example 10, 2-butyl-3-(2,6-dimethoxyphenyl)-6-hydroxy-5-{[4-(3-methyl-1,2,4-oxadiazol-5-yl)phenyl]methyl}-3,4-dihydropyrimidin-4-one], the EC50 under setting [2] fell in the range of 0.01 to 10 nM.

Regarding `CCCCc1nc(O)c(Cc2coc(-c3ccc(Cl)cc3)n2)c(=O)n1-c1c(OC)cccc1OC` [Example 11, 2-butyl-5-{[2-(4-chlorophenyl)-1,3-oxazol-4-yl]methyl}-3-(2,6-dimethoxyphenyl)-6-hydroxy-3,4-dihydropyrimidin-4-one], under setting [2], the EC50 was 0.01 to 10 nM.

On to `CCCCc1nc(O)c(Cc2ccc(-c3csnn3)cc2)c(=O)n1-c1c(OC)cccc1OC` [Example 12, 2-butyl-3-(2,6-dimethoxyphenyl)-6-hydroxy-5-{[4-(1,2,3-thiadiazol-4-yl)phenyl]methyl}-3,4-dihydropyrimidin-4-one], for which the EC50 under setting [2] lay in the range of 0.01 to 10 nM.

Regarding `CCCCc1nc(O)c(Cc2ccc(-c3ncon3)c(F)c2)c(=O)n1-c1c(OC)cccc1OC` [Example 13, 2-butyl-3-(2,6-dimethoxyphenyl)-5-{[3-fluoro-4-(1,2,4-oxadiazol-3-yl)phenyl]methyl}-6-hydroxy-3,4-dihydropyrimidin-4-one], under setting [2], the EC50 was 0.01 to 10 nM.

Take `CCCCc1nc(O)c(Cc2ccc(-c3ccc(Cl)cc3)nc2)c(=O)n1-c1c(OC)cccc1OC` [Example 14, 2-butyl-5-{[6-(4-chlorophenyl)pyridin-3-yl]methyl}-3-(2,6-dimethoxyphenyl)-6-hydroxy-3,4-dihydropyrimidin-4-one]: the EC50 under setting [2] was 0.01 to 10 nM.

As for `CCCCc1nc(O)c(Cc2ccc(C(=O)NCC)cc2)c(=O)n1-c1c(OC)cccc1OC` [Example 15, 4-{[2-butyl-1-(2,6-dimethoxyphenyl)-4-hydroxy-6-oxo-1,6-dihydropyrimidin-5-yl]methyl}-N-ethylbenzamide], the EC50 under setting [2] was in the range of 10 to 100 nM.

Take `COc1cccc(OC)c1-n1c(CCC(C)C)nc(O)c(Cc2ccc(NC(C)=O)cc2)c1=O` [Example 16, N-(4-{[1-(2,6-dimethoxyphenyl)-4-hydroxy-2-(3-methylbutyl)-6-oxo-1,6-dihydropyrimidin-5-yl]methyl}phenyl)acetamide]: under setting [2], the EC50 was in the range of 10 to 100 nM.

Regarding `COc1cccc(OC)c1-n1c(CCC(C)C)nc(O)c(Cc2ccc(-c3ncon3)cc2)c1=O` [Example 17, 3-(2,6-dimethoxyphenyl)-6-hydroxy-2-(3-methylbutyl)-5-{[4-(1,2,4-oxadiazol-3-yl)phenyl]methyl}-3,4-dihydropyrimidin-4-one], under setting [2], the EC50 lay in the range of 10 to 100 nM.

As for `COc1cccc(OC)c1-n1c(CCC(C)C)nc(O)c(Cc2coc(-c3ccc(Cl)cc3)n2)c1=O` [Example 18, 5-{[2-(4-chlorophenyl)-1,3-oxazol-4-yl]methyl}-3-(2,6-dimethoxyphenyl)-6-hydroxy-2-(3-methylbutyl)-3,4-dihydropyrimidin-4-one], the EC50 under setting [2] was 10 to 100 nM.

On to `CCCCc1nc(O)c(Cc2ccccc2)c(=O)n1-c1c(OC)cccc1OC` [Example 19, 5-benzyl-2-butyl-3-(2,6-dimethoxyphenyl)-6-hydroxy-3,4-dihydropyrimidin-4-one], for which the EC50 under setting [2] was 10 to 100 nM.

On to `CCCCc1nc(O)c(Cc2nc(-c3ccc(C(F)(F)F)cc3)no2)c(=O)n1-c1c(OC)cccc1OC` [Example 20, 2-butyl-3-(2,6-dimethoxyphenyl)-6-hydroxy-5-({3-[4-(trifluoromethyl)phenyl]-1,2,4-oxadiazol-5-yl}methyl)-3,4-dihydropyrimidin-4-one], for which the EC50 under setting [2] lay within 0.01 to 10 nM.

In the case of `COc1cccc(OC)c1-n1c(CCC(C)C)nc(O)c(Cc2nnc(-c3ccc(C)cc3)o2)c1=O` [Example 21, 3-(2,6-dimethoxyphenyl)-6-hydroxy-2-(3-methylbutyl)-5-{[5-(4-methylphenyl)-1,3,4-oxadiazol-2-yl]methyl}-3,4-dihydropyrimidin-4-one], under setting [2], the EC50 lay within 10 to 100 nM.

On to `CCCCc1nc(O)c(Cc2csc(-c3ccc(Cl)cc3)n2)c(=O)n1-c1c(OC)cccc1OC` [Example 22, 2-butyl-5-{[2-(4-chlorophenyl)-1,3-thiazol-4-yl]methyl}-3-(2,6-dimethoxyphenyl)-6-hydroxy-3,4-dihydropyrimidin-4-one], for which the EC50 under setting [2] was 10 to 100 nM.

`CCCCc1nc(O)c(Cc2csc(-c3ccc(C)cc3)n2)c(=O)n1-c1c(OC)cccc1OC` [Example 23, 2-butyl-3-(2,6-dimethoxyphenyl)-6-hydroxy-5-{[2-(4-methylphenyl)-1,3-thiazol-4-yl]methyl}-3,4-dihydropyrimidin-4-one]: under setting [2], the EC50 fell in the range of 10 to 100 nM.

In the case of `CCCCc1nc(O)c(Cc2ccn(-c3ccc(Cl)cc3)n2)c(=O)n1-c1c(OC)cccc1OC` [Example 24, 2-butyl-5-{[1-(4-chlorophenyl)-1H-pyrazol-3-yl]methyl}-3-(2,6-dimethoxyphenyl)-6-hydroxy-3,4-dihydropyrimidin-4-one], the EC50 under setting [2] lay in the range of 0.01 to 10 nM.

Take `CCCCc1nc(O)c(Cc2cnn(-c3ccc(C)cc3)c2)c(=O)n1-c1c(OC)cccc1OC` [Example 25, 2-butyl-3-(2,6-dimethoxyphenyl)-6-hydroxy-5-{[1-(4-methylphenyl)-1H-pyrazol-4-yl]methyl}-3,4-dihydropyrimidin-4-one]: the EC50 under setting [2] lay within 0.01 to 10 nM.

Turning to `CCCCc1nc(O)c(Cc2cnc(-c3ccc(Cl)cc3)s2)c(=O)n1-c1c(OC)cccc1OC` [Example 26, 2-butyl-5-{[2-(4-chlorophenyl)-1,3-thiazol-5-yl]methyl}-3-(2,6-dimethoxyphenyl)-6-hydroxy-3,4-dihydropyrimidin-4-one], under setting [2], the EC50 lay within 0.01 to 10 nM.

Regarding `CCCCc1nc(O)c(Cc2ccc(Cn3cccn3)cc2)c(=O)n1-c1c(OC)cccc1OC` [Example 27, 2-butyl-3-(2,6-dimethoxyphenyl)-6-hydroxy-5-{[4-(1H-pyrazol-1-ylmethyl)phenyl]methyl}-3,4-dihydropyrimidin-4-one], the EC50 under setting [2] fell in the range of 0.01 to 10 nM.
